Source: the supplement of paper PMC4932681

Key:
Test in all cases: viability inhibition at highest dose (% inhibition); higher = more growth inhibition
ZR-75-1 = settings: 72 h
Method: (§1)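 Percent inhibition of viability (CellTiter-Glo, 72 h) at the highest tested concentration (D5), normalised to DMSO (0%) and 100 µM benzethonium chloride (100%). Resistant lines and the 'in 1µM tamoxifen' arms were tested in 1 µM 4-OH-tamoxifen.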

T-47D = settings: 72 h
Method: as §1

T-47D Tam2 = settings: 4-OH-tamoxifen in medium 1 µM; 72 h
Method: as §1

MCF-7 = settings: 72 h
Method: as §1

ZR-75-1 Tam2 = settings: 4-OH-tamoxifen in medium 1 µM; 72 h
Method: as §1

ZR-75-1 Tam1 = settings: 4-OH-tamoxifen in medium 1 µM; 72 h
Method: as §1

MCF-7 Tam1 = settings: 4-OH-tamoxifen in medium 1 µM; 72 h
Method: as §1

BT-474 = settings: 72 h
Method: as §1

T-47D Tam1 = settings: 4-OH-tamoxifen in medium 1 µM; 72 h
Method: as §1

BT-474 Tam2 = settings: 4-OH-tamoxifen in medium 1 µM; 72 h
Method: as §1

BT-474 Tam1 = settings: 4-OH-tamoxifen in medium 1 µM; 72 h
Method: as §1

| Structure (SMILES) | viability inhibition at highest dose (ZR-75-1; 4-OH-tamoxifen in medium 0 µM) | viability inhibition at highest dose (ZR-75-1; 4-OH-tamoxifen in medium 1 µM) | viability inhibition at highest dose (T-47D; 4-OH-tamoxifen in medium 0 µM) | viability inhibition at highest dose (T-47D; 4-OH-tamoxifen in medium 1 µM) | viability inhibition at highest dose (T-47D Tam2) | viability inhibition at highest dose (MCF-7; 4-OH-tamoxifen in medium 0 µM) | viability inhibition at highest dose (MCF-7; 4-OH-tamoxifen in medium 1 µM) | viability inhibition at highest dose (ZR-75-1 Tam2) | viability inhibition at highest dose (ZR-75-1 Tam1) | viability inhibition at highest dose (MCF-7 Tam1) | viability inhibition at highest dose (BT-474; 4-OH-tamoxifen in medium 0 µM) | viability inhibition at highest dose (BT-474; 4-OH-tamoxifen in medium 1 µM) | viability inhibition at highest dose (T-47D Tam1) | viability inhibition at highest dose (BT-474 Tam2) | viability inhibition at highest dose (BT-474 Tam1) |
| --- | --- | --- | --- | --- | --- | --- | --- | --- | --- | --- | --- | --- | --- | --- | --- |
| O=C(O)CC[C@H]1CC[C@@](c2cc(F)ccc2F)(S(=O)(=O)c2ccc(Cl)cc2)CC1 [MK-0752] (drug 1000 nM) | -11.9 | -13.3 | -16.2 | -1.71 | 4.08 | -24.6 | 1.59 | -2.73 | -3.02 | -0.531 | -9.96 | -12.2 | 2.67 | 2.64 | -7.32 |
| C=CCn1c(=O)c2cnc(Nc3ccc(N4CCN(C)CC4)cc3)nc2n1-c1cccc(C(C)(C)O)n1 [MK-1775] (drug 10000 nM) | 21.9 | 14.6 | 22.4 | 16.9 | 38.8 | 51.7 | 35.9 | 1.58 | 1.62 | 6.3 | 25 | 44 | 39.6 | 30.6 | 40.9 |
| NC1(c2ccc(-c3nc4ccn5c(=O)[nH]nc5c4cc3-c3ccccc3)cc2)CCC1 [MK-2206] (drug 1000 nM) | 57.1 | 51.6 | 52.4 | 36.6 | 49.9 | 35.1 | 44.8 | 63.1 | 60.8 | 29.1 | 27.6 | 50.8 | 44.5 | 21.9 | 47 |
| NC(=O)c1cccc2cn(-c3ccc([C@@H]4CCCNC4)cc3)nc12 [MK-4827] (drug 10000 nM) | 11.6 | 8.9 | 20.9 | -1.38 | 14.2 | 12.1 | 16.4 | 9.71 | 2.04 | -3.14 | -13.3 | -7.59 | 1.65 | 21.1 | 42.3 |
| Cc1ccc(NC(=O)c2ccc(CN3CCN(C)CC3)cc2)cc1Nc1nc(-c2cccnc2)cs1 [Masitinib] (drug 10000 nM) | 9.35 | 20.3 | 42 | 57.1 | 40.7 | 39.5 | 40.7 | 32.8 | 18.2 | 26.5 | 21.2 | 71.6 | 34.5 | 87 | 93.1 |
| S=c1[nH]cnc2nc[nH]c12 [Mercaptopurine] (drug 10000 nM) | 39.5 | 6.71 | 3.17 | -0.759 | 12.1 | 18.1 | 27.8 | 18 | 35.5 | 11.9 | 3.7 | 13.8 | 11.9 | 6.87 | 3.48 |
| CN(Cc1cnc2nc(N)nc(N)c2n1)c1ccc(C(=O)N[C@@H](CCC(=O)O)C(=O)O)cc1 [Methotrexate] (drug 10000 nM) | 22.8 | 2.09 | -7.44 | -4.13 | 6.27 | 18.8 | 29.1 | 10.5 | 15.9 | 14.2 | -11.3 | -21.2 | -0.232 | 2.17 | -17.3 |
| COc1c2occc2cc2ccc(=O)oc12 [Methoxsalen] (drug 10000 nM) | -8.57 | 1.74 | -17.2 | -5.34 | 7.26 | -6.63 | 1.6 | -6.82 | 2.54 | -6.39 | -4.57 | 7.92 | -4.99 | 1.89 | 10.8 |
| C[C@H]1C[C@@H]2[C@H]([C@@H](O)C[C@@]3(C)[C@H]2CC[C@]3(O)C(=O)CO)[C@@]2(C)C=CC(=O)C=C12 [Methylprednisolone] (drug 10000 nM) | -6.28 | -4.27 | -19.3 | -15.1 | 8.67 | -1.81 | 18.4 | 0.244 | 6.19 | -0.753 | -7.44 | -20.6 | -1.09 | -2.3 | -9.86 |
| CO[C@@H]1[C@H](N(C)C(=O)c2ccccc2)C[C@H]2O[C@]1(C)n1c3ccccc3c3c4c(c5c6ccccc6n2c5c31)C(=O)NC4 [Midostaurin (PKC412)] (drug 10000 nM) | -11.7 | 0.532 | 18.3 | 39.4 | 25.1 | 18.9 | 17 | -15.6 | -11.5 | 17.7 | 23.7 | 40.4 | 34.6 | 19.4 | 27.5 |
| CO[C@@]12[C@H](COC(N)=O)C3=C(C(=O)C(C)=C(N)C3=O)N1C[C@@H]1N[C@@H]12 [Mitomycin C] (drug 10000 nM) | 25.5 | 23.7 | 31.4 | -4.69 | 10.8 | 16.2 | 11.4 | 23.4 | 28.3 | -6.06 | -12.3 | -7 | 33.5 | 0.827 | 0.772 |
| Clc1ccc(C(c2ccccc2Cl)C(Cl)Cl)cc1 (stereo not given) [Mitotane] (drug 10000 nM) | -16.5 | -2.85 | -16.5 | -15.2 | 8.17 | -8.27 | 0.312 | -0.971 | 1.3 | -2.99 | -9.37 | -3.54 | 8.29 | 3.56 | 4.23 |
| O=C1c2c(O)ccc(O)c2C(=O)c2c(NCCNCCO)ccc(NCCNCCO)c21 [Mitoxantrone] (drug 1000 nM) | 29.7 | 20.2 | 29.5 | 2.9 | 21.5 | -3.19 | 7.73 | 24.9 | 21.3 | 1.72 | 3.96 | -1.95 | 47.8 | -13.6 | -23.8 |
| Nc1ccccc1NC(=O)c1ccc(CNc2nccc(-c3cccnc3)n2)cc1 [Mocetotinostat (MGCD0103)] (drug 10000 nM) | 32.8 | 23.3 | 81.2 | 73.8 | 41.7 | 80.1 | 62.7 | 31 | 27.6 | 15.4 | 65.7 | 94.3 | 52.9 | 83.4 | 95.4 |
| N#CCNC(=O)c1ccc(-c2ccnc(Nc3ccc(N4CCOCC4)cc3)n2)cc1 [Momelotinib (CYT-387)] (drug 10000 nM) | 6.2 | 5.38 | 22.8 | 17.9 | 40 | 48.5 | 69 | 8.52 | 7.45 | 43.1 | 3.98 | -26.5 | 39.2 | 31.1 | 38.6 |
| CC1(C)CNc2cc(NC(=O)c3cccnc3NCc3ccncc3)ccc21 [Motesanib  (AMG-706)] (drug 10000 nM) | -8.12 | -2.93 | -15.1 | -10.7 | 12.6 | -2.53 | 1.3 | -1.27 | -1.35 | -1.95 | -7.25 | -16.2 | 9.4 | -2.84 | -2.75 |
| CCNC(=O)c1noc(-c2cc(C(C)C)c(O)cc2O)c1-c1ccc(CN2CCOCC2)cc1 [NVP-AUY922] (drug 1000 nM) | 34.2 | 42.6 | 68.8 | 55.5 | 55 | 61.6 | 46.1 | 44.4 | 28.5 | 24.1 | 48.6 | 78 | 49.8 | 65.7 | 75.2 |
| CCN1CCN(c2ccc(Nc3cc(N(C)C(=O)Nc4c(Cl)c(OC)cc(OC)c4Cl)ncn3)cc2)CC1 [NVP-BGJ398] (drug 1000 nM) | -1.6 | -10.3 | -9.62 | 3.56 | -8.43 | -15.8 | 2.98 | -4.28 | -4.94 | 0.341 | -15.6 | 1.03 | 5.28 | 5.89 | 14.4 |
| CC1(C)CCC(c2ccc(Cl)cc2)=C(CN2CCN(c3ccc(C(=O)NS(=O)(=O)c4ccc(N[C@H](CCN5CCOCC5)CSc5ccccc5)c(S(=O)(=O)C(F)(F)F)c4)cc3)CC2)C1 [Navitoclax (ABT-263)] (drug 10000 nM) | -9.03 | -6.23 | 0.832 | 3.74 | 23.7 | 27 | 14.2 | -6.95 | -1.41 | 5 | 6.74 | 47.7 | 38.4 | 32.7 | 33.3 |
| COc1nc(N)nc2c1ncn2[C@@H]1O[C@H](CO)[C@@H](O)[C@@H]1O [Nelarabine] (drug 10000 nM) | 11.1 | 4.17 | 1.79 | 6.8 | -4.97 | 13.2 | -6.84 | 2.19 | 1.44 | 4.67 | -2.92 | 16.3 | -2.1 | -6.72 | 0.136 |
| CCOc1cc2ncc(C#N)c(Nc3ccc(OCc4ccccn4)c(Cl)c3)c2cc1NC(=O)/C=C/CN(C)C [Neratinib] (drug 1000 nM) | -13 | 9.01 | 19 | 1.93 | 32.5 | -5.52 | 24.9 | 9.49 | 2.29 | 8.88 | 83.2 | 95 | 32.5 | 97.1 | 97.4 |
| Cc1cn(-c2cc(NC(=O)c3ccc(C)c(Nc4nccc(-c5cccnc5)n4)c3)cc(C(F)(F)F)c2)cn1 [Nilotinib] (drug 10000 nM) | -11.8 | -6.98 | -17.5 | -20.8 | 2.08 | 5.79 | 5.88 | -2.53 | 2.47 | -8.69 | -6.7 | 1.42 | -0.169 | 1.02 | 22.9 |
| CC1(C)NC(=O)N(c2ccc([N+](=O)[O-])c(C(F)(F)F)c2)C1=O [Nilutamide] (drug 10000 nM) | -16.5 | -4.81 | -3.55 | -11.8 | 6 | -15.4 | 15.9 | 4.62 | 2.7 | -1.08 | -2.3 | -13.3 | 0.496 | 10.7 | -0.747 |
| COC(=O)c1ccc2c(c1)NC(=O)/C2=C(\Nc1ccc(N(C)C(=O)CN2CCN(C)CC2)cc1)c1ccccc1 [Nintedanib (BIBF 1120)] (drug 10000 nM) | -10.8 | -9.4 | -18.3 | -16.7 | 5.71 | 12.4 | 3.6 | -3.8 | 7.5 | -3.72 | 5.93 | 24.8 | -2.42 | -5.56 | 30.7 |
| COc1ccc(C2=N[C@@H](c3ccc(Cl)cc3)[C@@H](c3ccc(Cl)cc3)N2C(=O)N2CCNC(=O)C2)c(OC(C)C)c1 [Nutlin-3] (drug 10000 nM) | 36 | 29.7 | 1.78 | 1.4 | 20.4 | 28.5 | 45.2 | 42.8 | 31.8 | 16.7 | -7.59 | 11.2 | 15.8 | 29.7 | 33.4 |
| COc1cccc2cc(-c3nc([C@H]4CC[C@H](C(=O)O)CC4)n4ncnc(N)c34)[nH]c12 [OSI-027] (drug 10000 nM) | 60.5 | 52.9 | 62.6 | 42.7 | 38 | 44.4 | 43.9 | 65.5 | 52.6 | 30.1 | 35.5 | 47.5 | 55.6 | 35.6 | 38.1 |
| COC1=CC(c2cc3ccccc3[nH]2)=N/C1=C\c1[nH]c(C)cc1C [Obatoclax (GX15-070)] (drug 10000 nM) | 32.5 | 31.2 | 47 | 44.1 | 36.8 | 45.6 | 75.8 | 50.8 | 23.7 | 51.1 | 68.9 | 18.9 | 67.3 | 86.7 | 36.3 |
